Measurements taken from US20250302832A1, “PYRAZINE DERIVATIVES AND USES THEREOF” (FOGHORN THERAPEUTICS INC., priority 2022, published 2025).

Tests used:
HiBit-BRM fusion protein = biological target: T1, HiBit-BRM fusion protein (Homo sapiens, UniProt P51531); assay: HiBiT-BRM cell-based degradation assay (Nano-Glo HiBiT lytic detection, 24 h); settings: HeLa cell line expressing HiBiT-BRM
T1 construct: expressed in transfected cells
In short: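 Luminescence from LgBiT complementation quantified remaining HiBiT-BRM in stably expressing HeLa cells after 24 h compound exposure (top final dose 30 μM, 3-fold, 10 points, duplicate). Degradation expressed as percent relative to DMSO and a 2 μM reference degrader.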

[1] = biological target: T2, HiBit-BRG1 fusion protein (Homo sapiens, UniProt P51532); assay: HiBiT-BRG1 cell-based degradation assay (Nano-Glo HiBiT lytic detection, 24 h); settings: HeLa cell line expressing HiBit-BRG1 and LgBit, read-out: BRG1 HiBit Degradation Maximum (%)
T2 construct: expressed in transfected cells
In short: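 Luminescence from HiBiT/LgBiT complementation after lytic detection reagent was read following 24 h compound exposure of HeLa cells stably carrying HiBiT-BRG1 plus LgBiT (5000 cells/well). Signal scaled to % degradation using DMSO-treated cells as 0% and cells given 2 μM known BRM/BRG1 degrader as 100%.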

T1 sequence (P51531 whole entry, the tested form may be a part): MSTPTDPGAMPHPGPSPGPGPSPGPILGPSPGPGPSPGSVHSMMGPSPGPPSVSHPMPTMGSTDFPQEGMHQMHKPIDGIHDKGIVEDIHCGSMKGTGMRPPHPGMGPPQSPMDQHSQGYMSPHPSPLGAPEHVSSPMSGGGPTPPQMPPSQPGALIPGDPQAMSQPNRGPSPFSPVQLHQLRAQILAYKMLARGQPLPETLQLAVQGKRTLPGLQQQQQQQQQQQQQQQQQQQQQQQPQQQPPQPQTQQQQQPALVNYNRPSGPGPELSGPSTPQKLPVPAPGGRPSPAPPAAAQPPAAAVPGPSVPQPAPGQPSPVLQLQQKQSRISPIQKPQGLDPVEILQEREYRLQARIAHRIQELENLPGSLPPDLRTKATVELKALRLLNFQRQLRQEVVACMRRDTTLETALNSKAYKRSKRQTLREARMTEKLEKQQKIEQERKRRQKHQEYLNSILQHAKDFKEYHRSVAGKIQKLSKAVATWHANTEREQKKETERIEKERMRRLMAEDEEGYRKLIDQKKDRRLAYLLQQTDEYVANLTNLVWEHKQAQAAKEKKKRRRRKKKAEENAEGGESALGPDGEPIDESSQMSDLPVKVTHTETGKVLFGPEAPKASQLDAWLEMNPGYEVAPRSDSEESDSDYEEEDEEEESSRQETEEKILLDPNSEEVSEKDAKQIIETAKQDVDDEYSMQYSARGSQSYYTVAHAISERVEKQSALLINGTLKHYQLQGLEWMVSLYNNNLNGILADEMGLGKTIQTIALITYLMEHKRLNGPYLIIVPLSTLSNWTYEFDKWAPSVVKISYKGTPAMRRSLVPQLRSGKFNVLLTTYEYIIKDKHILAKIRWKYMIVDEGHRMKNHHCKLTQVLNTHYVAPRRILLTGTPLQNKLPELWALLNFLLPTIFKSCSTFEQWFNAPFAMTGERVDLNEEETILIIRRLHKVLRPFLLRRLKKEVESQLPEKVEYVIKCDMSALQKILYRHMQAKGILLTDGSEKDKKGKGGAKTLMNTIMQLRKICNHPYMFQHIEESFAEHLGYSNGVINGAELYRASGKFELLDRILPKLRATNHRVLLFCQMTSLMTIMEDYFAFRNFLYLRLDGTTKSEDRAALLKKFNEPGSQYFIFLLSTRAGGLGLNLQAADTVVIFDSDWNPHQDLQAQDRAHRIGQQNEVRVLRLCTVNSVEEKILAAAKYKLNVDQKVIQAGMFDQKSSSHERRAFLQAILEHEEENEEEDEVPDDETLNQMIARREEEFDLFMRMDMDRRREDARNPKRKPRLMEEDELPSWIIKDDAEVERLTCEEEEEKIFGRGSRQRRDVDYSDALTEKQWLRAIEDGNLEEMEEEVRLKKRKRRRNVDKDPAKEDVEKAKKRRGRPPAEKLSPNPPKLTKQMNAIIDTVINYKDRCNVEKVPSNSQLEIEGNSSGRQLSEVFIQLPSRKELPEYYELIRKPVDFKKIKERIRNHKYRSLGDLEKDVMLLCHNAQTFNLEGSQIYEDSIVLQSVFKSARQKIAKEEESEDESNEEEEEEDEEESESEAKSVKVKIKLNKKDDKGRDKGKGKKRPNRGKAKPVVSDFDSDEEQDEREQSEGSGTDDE
T2 sequence (P51532 whole entry, the tested form may be a part): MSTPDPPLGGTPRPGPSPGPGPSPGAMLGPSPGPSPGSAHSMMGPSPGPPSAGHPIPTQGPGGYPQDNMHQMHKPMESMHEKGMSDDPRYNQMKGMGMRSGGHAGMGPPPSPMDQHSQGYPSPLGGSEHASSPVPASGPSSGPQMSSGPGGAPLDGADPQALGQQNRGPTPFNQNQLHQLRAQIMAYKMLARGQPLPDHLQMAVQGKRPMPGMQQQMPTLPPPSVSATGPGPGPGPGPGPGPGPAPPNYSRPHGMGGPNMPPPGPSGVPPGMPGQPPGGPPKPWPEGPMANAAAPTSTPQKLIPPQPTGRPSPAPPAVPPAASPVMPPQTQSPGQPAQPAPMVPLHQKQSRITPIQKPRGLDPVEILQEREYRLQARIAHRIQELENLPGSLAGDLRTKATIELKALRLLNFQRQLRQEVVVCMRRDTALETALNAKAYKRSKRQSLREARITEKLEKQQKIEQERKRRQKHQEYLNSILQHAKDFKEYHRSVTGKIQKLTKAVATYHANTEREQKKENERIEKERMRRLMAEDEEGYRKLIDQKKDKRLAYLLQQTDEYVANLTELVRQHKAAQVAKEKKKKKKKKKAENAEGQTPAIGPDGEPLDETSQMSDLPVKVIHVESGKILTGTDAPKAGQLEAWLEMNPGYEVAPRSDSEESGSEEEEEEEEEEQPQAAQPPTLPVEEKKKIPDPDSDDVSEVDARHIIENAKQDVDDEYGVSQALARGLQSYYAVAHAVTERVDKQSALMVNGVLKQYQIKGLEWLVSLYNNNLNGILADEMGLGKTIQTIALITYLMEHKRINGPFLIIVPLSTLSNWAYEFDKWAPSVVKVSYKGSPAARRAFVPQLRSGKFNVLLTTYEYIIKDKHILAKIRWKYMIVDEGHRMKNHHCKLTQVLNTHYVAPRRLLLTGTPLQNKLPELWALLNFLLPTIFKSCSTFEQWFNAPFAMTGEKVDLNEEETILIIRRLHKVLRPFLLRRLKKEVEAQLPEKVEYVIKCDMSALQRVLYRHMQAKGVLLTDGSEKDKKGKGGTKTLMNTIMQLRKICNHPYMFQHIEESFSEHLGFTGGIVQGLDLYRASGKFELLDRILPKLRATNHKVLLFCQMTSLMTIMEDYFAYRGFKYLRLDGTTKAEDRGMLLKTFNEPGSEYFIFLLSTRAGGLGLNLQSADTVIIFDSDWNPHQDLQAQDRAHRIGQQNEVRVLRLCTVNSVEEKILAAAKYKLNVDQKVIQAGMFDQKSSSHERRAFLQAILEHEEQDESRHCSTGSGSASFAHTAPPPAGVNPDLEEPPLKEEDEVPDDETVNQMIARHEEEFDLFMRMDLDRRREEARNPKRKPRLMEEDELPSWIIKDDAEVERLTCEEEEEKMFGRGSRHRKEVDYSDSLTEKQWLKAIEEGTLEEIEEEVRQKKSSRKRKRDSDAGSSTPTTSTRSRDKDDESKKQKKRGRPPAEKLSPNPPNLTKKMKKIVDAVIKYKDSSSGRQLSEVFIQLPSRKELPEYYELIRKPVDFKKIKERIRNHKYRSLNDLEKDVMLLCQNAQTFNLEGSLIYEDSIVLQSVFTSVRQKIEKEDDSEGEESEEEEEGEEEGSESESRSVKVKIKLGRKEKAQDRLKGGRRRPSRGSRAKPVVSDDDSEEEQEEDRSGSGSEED

In the case of `C#Cc1ccc([C@H](C)NC(=O)[C@@H]2C[C@@H](O)CN2C(=O)C(c2cc(N3CC4(CC(c5cc6nnc(-c7ccccc7O)cc6n5C5CCC5)C4)C3)no2)C(C)C)c(Cl)c1` (stereo partly drawn) [Compound 121, (2S,4R)-N-((S)-1-(2-chloro-4-ethynylphenyl)ethyl)-1-(2-(3-(6-(5-cyclobutyl-3-(2-hydroxyphenyl)-5H-pyrrolo[3,2-c]pyridazin-6-yl)-2-azaspiro[3.3]heptan-2-yl)isoxazol-5-yl)-3-methylbutanoyl)-4-hydroxypyrrolidine-2-carboxamide], the “BRM HiBit Degradation Maximum (%)” value (HiBit-BRM fusion protein) is reported as “A (“A” indicates maximum degradation ≥75%)”, the DC50 (HiBit-BRM fusion protein; read-out: BRM HiBit Degradation IC50) is reported as over 10 nM and the Dmax [1] is reported as under 50%.
